Assay results from EP4741391A1, “NMT INHIBITOR, AND PREPARATION METHOD THEREFOR AND USE THEREOF” (Nanjing Synnocare Pharmaceutical Technology Co., Ltd., priority 2023, dated 2025).
pIC50: −log10 of the molar value.

What was measured:
MV-4-11 cells = assay: Anti-proliferative activity against MV-4-11 cells (three-day cell viability chemiluminescence); type: cell-based; settings: MV-4-11 human monocytic leukemia cells, three days of exposure
Protocol: This study utilized a cell proliferation assay to analyze the cytotoxicity of MV-4-11 human monocytic leukemia cells after three days of exposure to NMT1 inhibitors. The MV-4-11 cell line was purchased from Nanjing Cobuilder Biotechnology Co., Ltd., and cultured in IMDM medium (Viva cell) in an incubator (Thermo) at 37 °C with 5% CO2. In this experiment, NMT1 inhibitors were dissolved in DMSO to obtain 600 µM stock solutions. Dose-response solutions were prepared with a top endpoint compound concentration of 3 µM, followed by three-fold serial dilutions in DMSO, totaling eight data points. The final concentration of DMSO was 0.5%.
MV-4-11 cells were seeded into a white 96-well plate, 80 µL of cell suspension per well, containing 6000 MV-4-11 cells. The cell plate was placed in the CO2 incubator for overnight culture. Then, 20 µL of NMT1 inhibitor solutions at different concentrations were added to the wells. The 96-well plate was placed back into the incubator for three days. Another cell plate was prepared, and the signal was read on the day of drug addition to serve as the maximum value (Max value in the equation below) for data analysis. To this cell plate, 25 µL of cell viability chemiluminescence detection reagent was added per well, followed by incubation at room temperature for 10 minutes to stabilize the luminescence signal. A multi-label analyzer was used for reading.
The raw data were converted into inhibition rates using the equation (Sample - Min) / (Max - Min) * 100%. The IC50 values were then determined by fitting a four-parameter curve (using the "log(inhibitor) vs. response - Variable slope" model in GraphPad Prism). Min: wells treated with 0.5% DMSO; Max: Day 0 wells. Table 1 provides the inhibitory activity of the compounds of the invention on MV-4-11 cell proliferation. Table 1: Compound Inhibitory Activity against NMT1 Enzyme (IC50) and Anti-proliferative Activity against MV-4-11 Cells (IC50)

NMT1 enzyme = molecular target: T1, NMT1 enzyme (Homo sapiens, UniProt P30419); assay: Inhibitory activity on NMT1 enzyme catalysis (fluorescence intensity, CPM probe); type: biochemical; settings: 6 nM NMT1 enzyme, 1.25 µM myristoyl-CoA, 20 µM HSPP60 SRC peptide, 45 minutes at 25 °C
T1 sequence (P30419 1-496): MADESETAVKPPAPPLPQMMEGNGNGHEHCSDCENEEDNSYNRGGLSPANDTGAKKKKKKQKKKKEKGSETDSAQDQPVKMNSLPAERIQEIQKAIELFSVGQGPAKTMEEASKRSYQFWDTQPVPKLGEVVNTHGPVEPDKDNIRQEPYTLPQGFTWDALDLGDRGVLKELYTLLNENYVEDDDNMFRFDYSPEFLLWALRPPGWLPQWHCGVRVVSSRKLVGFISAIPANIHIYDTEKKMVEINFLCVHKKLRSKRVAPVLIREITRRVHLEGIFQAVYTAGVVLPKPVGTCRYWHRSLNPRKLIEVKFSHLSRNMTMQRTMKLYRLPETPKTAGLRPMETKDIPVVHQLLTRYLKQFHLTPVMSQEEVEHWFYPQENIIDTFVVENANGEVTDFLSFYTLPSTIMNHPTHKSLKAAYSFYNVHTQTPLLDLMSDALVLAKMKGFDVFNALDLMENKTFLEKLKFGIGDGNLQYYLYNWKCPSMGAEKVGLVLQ
Protocol: This study evaluated the ability of the compounds of the invention to inhibit NMT1 catalytic activity in vitro. The experiment used a FI (Fluorescence Intensity) analysis method, characterizing NMT1 inhibitors under conditions of 1.25 µM myristoyl-CoA (Lithium salt, Sigma, M4414). In this experiment, a synthesized peptide with the sequence H-Gly-Ser-Asn-Lys-Ser-Lys-Pro-Lys-NH2, HSPP60SRC (Nanjing Peptide Industry, NJP23953), was used as the reaction substrate. The final concentration of the NMT1 enzyme was 6 nM, the final concentration of CPM (Reactive thiol fluorescence probe, Invitrogen, D346) was 1 µM, the final concentration of HSPP60 SRC was 20 µM, and the final concentration of DMSO was 0.5%.
Compounds were dissolved in DMSO to obtain 10 mM stock solutions. Dose-response solutions were prepared with a top endpoint compound concentration of 3 mM, followed by three-fold serial dilutions in DMSO, totaling ten data points. Using an ECHO acoustic liquid handler (BECKMAN, ECHO 655 system), 0.05 µL of the diluted compound solutions was transferred to a 384-well assay plate (Corning, CLS4514). Then, 2.5 µL of the NMT1 enzyme working solution was added to the 384-well assay plate, followed by incubation at 25 °C for 10 minutes. Subsequently, 5 µL of the CPM and myristoyl-CoA working solution was added, the plate was centrifuged at 1000 rpm for 1 minute, and then 2.5 µL of the HSPP60 SRC working solution was added to initiate the reaction. The reaction was incubated at 25 °C for 45 minutes. The FI signal ([…]; ex: 405 nm) was detected using an HTS high-throughput screening multifunctional microplate reader (BMG, PHERA star FSX).
The inhibition rate of the compounds on NMT1 enzyme catalytic activity was calculated using the following formula: Inhibition Percentage (%) = 100 * (Mean of DMSO group - Mean of Compound group) / (Mean of DMSO group - Mean of Blank control group). The IC50 curve of the compounds was fitted using the software XLfit 5.5.0 according to the nonlinear regression equation. Table 1 provides the inhibitory activity of the compounds of the invention on NMT1 enzyme catalysis.

SMILES	pIC50 (MV-4-11 cells; Homo sapiens, MV4-11, 72 h)	pIC50 (NMT1 enzyme)	pIC50 (MV-4-11 cells)
Cc1c(CCOc2ccc(F)cc2-c2ccn3ncc(CN(C)C)c3c2)c(C(=O)N(C)C)nn1C [Compound 6, 4-{2-[(2-{3-[(dimethylamino)methyl]pyrazolo[1,5-a]pyridin-5-yl}-4-fluorophenyl)oxy]ethyl}-1,5,N,N-tetrameth ylpyrazole-3-carboxamide]	7.52	8.54	–
Cc1c(CCOc2c(-c3ccn4ncc(CN(C)C)c4c3)ccc(F)c2F)c(C(=O)N(C)C)nn1C [Compound 7, 4-{2-[(6-{3-[(dimethylamino)methyl]pyrazolo[1,5-a]pyridin-5-yl}-2,3-difluorophenyl)oxy]ethyl}-1,5,N,N-tetram ethylpyrazole-3-carboxamide]	7.71	8.68	–
Cc1c(CCOc2c(-c3ccn4ncc(CN(C)C)c4c3)ccc(Cl)c2F)c(C(=O)N(C)C)nn1C [Compound 8, 4-{2-[(3-chloro-6-{3-[(dimethylamino)methyl]pyrazolo[1,5-a]pyridin-5-yl}-2-fluorophenyl)oxy]ethyl}-1,5,N,N-tetramethylpyrazole-3-carboxamide]	7.55	8.54	–
Cc1c(CCOc2c(-c3ccn4ncc(CN(C)C)c4c3)ccc(Cl)c2Cl)c(C(=O)N(C)C)nn1C [Compound 9, 4-{2-[(2,3-dichloro-6-{3-[(dimethylamino)methyl]pyrazolo[1,5-a]pyridin-5-yl}phenyl)oxy]ethyl}-1,5,N,N-tetra methylpyrazole-3-carboxamide]	7.49	8.43	–
Cc1c(CCOc2c(F)cc(F)cc2-c2ccn3ncc(CN(C)C)c3c2)c(C(=O)N(C)C)nn1C [Compound 10, 4-{2-[(6-{3-[(dimethylamino)methyl]pyrazolo[1,5-a]pyridin-5-yl}-2,4-difluorophenyl)oxy]ethyl}-1,5,N,N-tetram ethylpyrazole-3-carboxamide]	7.58	8.59	–
Cc1c(COc2cc(Cl)ccc2-c2ccn3ncc(CN(C)C)c3c2)c(C(=O)N(C)C)nn1C [Compound 11, 4-{[(5-chloro-2-{3-[(dimethylamino)methyl]pyrazolo[1,5-a]pyridin-5-yl}phenyl)oxy]methyl}-1,5,N,N-tetrameth ylpyrazole-3-carboxamide]	7.23	8.20	–
Cc1c(CCOc2cc(Cl)ccc2-c2ccn3ncc(CN(C)C)c3c2)c(CO)nn1C [Compound 12, (4-{2-[(5-chloro-2-{3-[(dimethylamino)methyl]-pyrazolo [1,5-a]pyridin-5-yl}phenyl)oxy]ethyl}-1,5-dimethylpyrazol-3-yl)methanol]	7.50	8.44	–
Cc1c(CCOc2cc(Cl)ccc2-c2ccn3ncc(CN(C)C)c3c2)c(C#N)nn1C [Compound 13, 4-{2-[(5-chloro-2-{3-[(dimethylamino)methyl]pyrazolo[1,5-a]pyridin-5-yl}phenyl)oxy]ethyl}-1,5-dimethylpyrazole-3-carbonitrile]	7.63	8.55	–
Cc1nn(C)c(C)c1CCOc1cc(Cl)ccc1-c1ccn2ncc(CN(C)C)c2c1 [Compound 14, 5-(4-chloro-2-{[2-(1,3,5-trimethylpyrazol-4-yl)ethyl]oxy}phenyl)-3-[(dimethylamino)methyl]pyrazolo[1,5-a]pyridine]	7.74	8.70	–
CCc1nn(C)c(C)c1CCOc1cc(Cl)ccc1-c1ccn2ncc(CN(C)C)c2c1 [Compound 15, 5-(4-chloro-2-{[2-(3-ethyl-1,5-dimethylpyrazol-4-yl)ethyl]oxy}phenyl)-3-[(dimethylamino)methyl]pyrazolo[1,5-a]pyridine]	7.68	8.63	–
Cc1c(CCOc2cc(Cl)ccc2-c2ccn3ncc(CN(C)C)c3c2)c(C(N)=O)nn1C [Compound 16, 4-{2-[(5-chloro-2-{3-[(dimethylamino)methyl]pyrazolo[1,5-a]pyridin-5-yl}phenyl)oxy]ethyl}-1,5-dimethylpyrazole-3-carboxamide]	7.38	8.27	–
CNC(=O)c1nn(C)c(C)c1CCOc1cc(Cl)ccc1-c1ccn2ncc(CN(C)C)c2c1 [Compound 17, 4-{2-[(5-chloro-2-{3-[(dimethylamino)methyl]pyrazolo[1,5-a]pyridin-5-yl}phenyl)oxy]ethyl}-1,5,N-trimethylp yrazole-3-carboxamide]	7.59	8.62	–
CCNC(=O)c1nn(C)c(C)c1CCOc1cc(Cl)ccc1-c1ccn2ncc(CN(C)C)c2c1 [Compound 18, 4-{2-[(5-chloro-2-{3-[(dimethylamino)methyl]pyrazolo[1,5-a]pyridin-5-yl}phenyl)oxy]ethyl}-N-ethyl-1,5-dime thylpyrazole-3-carboxamide]	7.52	8.53	–
CCN(C)C(=O)c1nn(C)c(C)c1CCOc1cc(Cl)ccc1-c1ccn2ncc(CN(C)C)c2c1 [Compound 19, 4-{2-[(5-chloro-2-{3-[(dimethylamino)methyl]pyrazolo[1,5-a]pyridin-5-yl}phenyl)oxy]ethyl}-N-ethyl-1,5,N-tri methylpyrazole-3-carboxamide]	7.53	8.49	–
CCN(CC)C(=O)c1nn(C)c(C)c1CCOc1cc(Cl)ccc1-c1ccn2ncc(CN(C)C)c2c1 [Compound 20, 4-{2-[(5-chloro-2-{3-[(dimethylamino)methyl]pyrazolo[1,5-a]pyridin-5-yl}phenyl)oxy]ethyl}-N,N-diethyl-1,5-dimethylpyrazole-3-carboxamide]	7.63	8.56	–
CNCc1cnn2ccc(-c3ccc(F)c(F)c3OCCc3c(C(=O)N(C)C)nn(C)c3C)cc12 [Compound 21, 4-{2-[(2,3-difluoro-6-{3-[(methylamino)methyl]pyrazolo[1,5-a]pyridin-5-y 1}phenyl)oxy]ethyl}-1,5,N,N-tetramet hylpyrazole-3-carboxamide]	> 8.00	8.79	8.23
CNCc1cnn2ccc(-c3ccc(F)c(F)c3OCCc3c(C(=O)NC)nn(C)c3C)cc12 [Compound 22, 4-{2-[(2,3-difluoro-6-{3-[(methylamino)methyl]pyrazolo[1,5-a]pyridin-5-yl}phenyl)oxy]ethyl}-1,5,N-trimethylp yrazole-3-carboxamide]	7.98	8.72	–
CNCc1cnn2ccc(-c3ccc(F)c(F)c3OCCc3c(C)nn(C)c3C)cc12 [Compound 23, 5-(3,4-difluoro-2-{[2-(1,3,5-trimethylpyrazol-4-yl)ethyl]oxy}phenyl)-3-[(methylamino)methyl]pyrazolo[1,5-a]py ridine]	7.71	8.59	–
